In patent publication US9113629B2, “4-amino-6-(4-substituted-phenyl)-picolinates and 6-amino-2-(4-substituted-phenyl)-pyrimidine-4-carboxylates and their use as herbicides” (DOW AGROSCIENCES LLC, priority 2013, dated 2015):
Where two headings read alike, the source gives them in different places.

How the values were obtained:
[1] = test system: Key Broadleaf Weed and Crop Species; test: Post-emergent Test II herbicidal activity (Table 5); format: in vivo; conditions: post-emergence, 336 h, 14 days after application; for pest or weed control at 70 g/ha: application rate 70 g ai/ha; for pest or weed control at 140 g/ha: application rate 140 g ai/ha
In short: (§1)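 Plants grown in Metro-Mix 360 (pH 6.0–6.8) in a greenhouse (~15 h photoperiod, 23–29 °C day) to first or second true leaf stage, then sprayed with compound in acetone/DMSO/aqueous crop-oil-surfactant carrier at 187 L/ha by track sprayer. Injury visually scored 0–100% versus untreated plants after 14 d.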

[2] = test system: Key Grass and Sedge Weeds as well as Grass Crops; test: Post-emergent Test II herbicidal activity (Table 6); format: in vivo; conditions: post-emergence, 336 h; for pest or weed control at 70 g/ha: 70 g ai/ha; for pest or weed control at 140 g/ha: 140 g ai/ha
In short: as §1

[3] = ABUTH: velvetleaf (Abutilon theophrasti), read-out: Visual Growth Reduction (%) 14 Days After Application, ABUTH
[4] = AMARE: redroot pigweed (Amaranthus retroflexus), read-out: Visual Growth Reduction (%) 14 Days After Application, AMARE
[5] = BRSNN: oilseed-rape, canola (Brassica napus), read-out: Visual Growth Reduction (%) 14 Days After Application, BRSNN
[6] = CHEAL: lambsquarters (Chenopodium album), read-out: Visual Growth Reduction (%) 14 Days After Application, CHEAL
[7] = EPHHL: wild poinsettia (Euphorbia heterophylla), read-out: Visual Growth Reduction (%) 14 Days After Application, EPHHL
[8] = HELAN: sunflower (Helianthus annuus), read-out: Visual Growth Reduction (%) 14 Days After Application, HELAN
[9] = VIOTR: wild pansy (Viola tricolor), read-out: Visual Growth Reduction (%) 14 Days After Application, VIOTR
[10] = CYPES: yellow nutsedge (Cyperus esculentus), read-out: Visual Growth Reduction (%) 14 Days After Application, CYPES
[11] = DIGSA: crabgrass (Digitaria sanguinalis), read-out: Visual Growth Reduction (%) 14 Days After Application, DIGSA
[12] = ECHCG: barnyardgrass (Echinochloa crus-galli), read-out: Visual Growth Reduction (%) 14 Days After Application, ECHCG
[13] = ORYSA: rice (Oryza sativa), crop, read-out: Visual Growth Reduction (%) 14 Days After Application, ORYSA
[14] = SETFA: giant foxtail (Setaria faberi), read-out: Visual Growth Reduction (%) 14 Days After Application, SETFA
[15] = SORVU: grain sorghum (Sorghum vulgare), read-out: Visual Growth Reduction (%) 14 Days After Application, SORVU
[16] = TRZSS (wheat, Triticum aestivum), crop, read-out: Visual Growth Reduction (%) 14 Days After Application, TRZSS
[17] = ZEAMX: maize, corn (Zea mays), crop, read-out: Visual Growth Reduction (%) 14 Days After Application, ZEAMX

Nc1c(F)c(-c2ccc([N+](=O)[O-])cc2)nc(C(=O)O)c1Cl [Compound 31, 4-amino-3-chloro-5-fluoro-6-(4-nitrophenyl)picolinic acid]
75 to 84%: pest or weed control at 70 g/ha [2, 12]
60 to 74%: pest or weed control at 70 g/ha [1, 6] | pest or weed control at 70 g/ha [2, 11] | pest or weed control at 140 g/ha [2, 11]
95 to 100%: pest or weed control at 70 g/ha [1, 4] | pest or weed control at 140 g/ha [1, 4] | pest or weed control at 70 g/ha [1, 8] | pest or weed control at 140 g/ha [1, 8]
180 to 181 °C: melting point
45 to 59%: pest or weed control at 140 g/ha [1, 5]
85 to 94%: pest or weed control at 140 g/ha [1, 6] | pest or weed control at 140 g/ha [2, 12]
30 to 44%: pest or weed control at 70 g/ha [1, 5]
0 to 29%: pest or weed control at 70 g/ha [1, 3] | pest or weed control at 140 g/ha [1, 3] | pest or weed control at 70 g/ha [1, 7] | pest or weed control at 140 g/ha [1, 7] | pest or weed control at 70 g/ha [1, 9] | pest or weed control at 140 g/ha [1, 9] | pest or weed control at 70 g/ha [2, 10] | pest or weed control at 140 g/ha [2, 10] | pest or weed control at 70 g/ha [2, 13] | pest or weed control at 140 g/ha [2, 13] | pest or weed control at 70 g/ha [2, 14] | pest or weed control at 140 g/ha [2, 14] | pest or weed control at 70 g/ha [2, 15] | pest or weed control at 140 g/ha [2, 15] | pest or weed control at 70 g/ha [2, 16] | pest or weed control at 140 g/ha [2, 16] | pest or weed control at 70 g/ha [2, 17] | pest or weed control at 140 g/ha [2, 17]
